Converted amounts (≈) assume the structure as drawn. Blank lines part the entries; values can stand above or below the compound they belong to.
Assays:
Enterococcus faecalis [1] = assay: Antibacterial activity against Enterococcus faecalis ATCC 6569; type: functional
Enterococcus faecium [2] = assay: Antibacterial activity against Enterococcus faecium ATCC 49452; type: functional
Staphylococcus aureus [3] = assay: Antibacterial activity against methicillin-resistant staphylococcus aureus ATCC 43300; type: functional
Staphylococcus aureus [4] = assay: Antibacterial activity against methicillin susceptible staphylococcus aureus ATCC 29213; type: functional
Enterococcus faecalis [5] = assay: Antibacterial activity against Enterococcus faecalis ATCC 6569 at 0 % serum; type: functional
Staphylococcus aureus [6] = assay: Antibacterial activity against methicillin-resistant staphylococcus aureus ATCC 43300 at 0 % serum; type: functional
Enterococcus faecium [7] = assay: Antibacterial activity against Enterococcus faecium ATCC 49452 at 0 % serum; type: functional
Enterococcus faecalis [8] = assay: Antibacterial activity against Enterococcus faecalis ATCC 6569 at 10 % serum; type: functional; conditions: ATCC 6569, Serum
Staphylococcus aureus [9] = assay: Antibacterial activity against methicillin-resistant staphylococcus aureus ATCC 43300 at 10 % serum; type: functional
Staphylococcus aureus [10] = assay: Antibacterial activity against methicillin susceptible staphylococcus aureus ATCC 29213 at 0 % serum; type: functional
Staphylococcus aureus [11] = assay: Antibacterial activity against methicillin susceptible staphylococcus aureus ATCC 29213 at 10 % serum; type: functional
Enterococcus faecium [12] = assay: Antibacterial activity against Enterococcus faecium ATCC 49452 at 10 % serum; type: functional; conditions: ATCC 49452, Serum
[13] = Total plasma clearance in mice; type: ADME, organism-based; conditions: mouse
[14] = Vd in mice; type: ADME, organism-based; conditions: mouse, in vivo
[15] = Half-life in mice; type: ADME, organism-based; conditions: mouse, in vivo

MIC (Enterococcus faecalis [1]): 3.1 mg/L (≈ 1.71 µM)
MIC (Enterococcus faecium [2]): 12.5 mg/L (≈ 6.9 µM)
SMILES: CCCCCCCCCC(=O)N[C@@H](Cc1c[nH]c2ccccc12)C(=O)N[C@H](CC(N)=O)C(=O)N[C@@H](CCO)C(=O)N[C@@H]1C(=O)NCC(=O)N[C@@H](CCCNC(=O)C(N)Cc2c[nH]c3ccc(F)cc23)C(=O)N[C@@H](CC(=O)O)C(=O)N[C@H](C)C(=O)N[C@@H](CC(=O)O)C(=O)NCC(=O)N[C@H](CO)C(=O)N[C@@H]([C@H](C)CC(=O)O)C(=O)N[C@@H](CC(=O)c2ccccc2N)C(=O)O[C@@H]1C (stereo not given in full)

MIC (Enterococcus faecalis [1]): 3.1 mg/L (≈ 1.78 µM)
MIC (Enterococcus faecium [2]): 3.1 mg/L (≈ 1.78 µM)
SMILES: CCCCCCCCCC(=O)N[C@@H](Cc1c[nH]c2ccccc12)C(=O)N[C@H](CC(N)=O)C(=O)N[C@@H](CCO)C(=O)N[C@@H]1C(=O)NCC(=O)N[C@@H](CCCNC(=O)c2c(N)cccc2F)C(=O)N[C@@H](CC(=O)O)C(=O)N[C@H](C)C(=O)N[C@@H](CC(=O)O)C(=O)NCC(=O)N[C@H](CO)C(=O)N[C@@H]([C@H](C)CC(=O)O)C(=O)N[C@@H](CC(=O)c2ccccc2N)C(=O)O[C@@H]1C

SMILES: CCCCCCCCCC(=O)N[C@@H](Cc1c[nH]c2ccccc12)C(=O)N[C@H](CC(N)=O)C(=O)N[C@@H](CCO)C(=O)N[C@@H]1C(=O)NCC(=O)N[C@@H](CCCNC(=O)c2ccccc2N)C(=O)N[C@@H](CC(=O)O)C(=O)N[C@H](C)C(=O)N[C@@H](CC(=O)O)C(=O)NCC(=O)N[C@H](CO)C(=O)N[C@@H]([C@H](C)CC(=O)O)C(=O)N[C@@H](CC(=O)c2ccccc2N)C(=O)O[C@@H]1C
MIC (Staphylococcus aureus [3]): 0.78 mg/L (≈ 0.452 µM)
MIC (Staphylococcus aureus [4]): 1.56 mg/L (≈ 0.904 µM)
MIC (Enterococcus faecalis [1]): 3.1 mg/L (≈ 1.8 µM)
MIC (Enterococcus faecium [2]): 12.5 mg/L (≈ 7.24 µM)

SMILES: CCCCCCCCCC(=O)N[C@@H](Cc1c[nH]c2ccccc12)C(=O)N[C@H](CC(N)=O)C(=O)N[C@@H](CCO)C(=O)N[C@@H]1C(=O)NCC(=O)N[C@@H](CCCNC(=O)c2ccccc2)C(=O)N[C@@H](CC(=O)O)C(=O)N[C@H](C)C(=O)N[C@@H](CC(=O)O)C(=O)NCC(=O)N[C@H](CO)C(=O)N[C@@H]([C@H](C)CC(=O)O)C(=O)N[C@@H](CC(=O)c2ccccc2N)C(=O)O[C@@H]1C
MIC (Staphylococcus aureus [3]): 6.25 mg/L (≈ 3.65 µM)
MIC (Staphylococcus aureus [4]): 12.5 mg/L (≈ 7.31 µM)
MIC (Enterococcus faecalis [1]): 25 mg/L (≈ 14.6 µM)
MIC (Enterococcus faecium [2]): 25 mg/L (≈ 14.6 µM)

SMILES: CCCCCCCCCC(=O)N[C@@H](Cc1c[nH]c2ccccc12)C(=O)N[C@H](CC(N)=O)C(=O)N[C@@H](CCO)C(=O)N[C@@H]1C(=O)NCC(=O)N[C@@H](CCCNC(=O)c2ccccc2S(=O)(=O)O)C(=O)N[C@@H](CC(=O)O)C(=O)N[C@H](C)C(=O)N[C@@H](CC(=O)O)C(=O)NCC(=O)N[C@H](CO)C(=O)N[C@@H]([C@H](C)CC(=O)O)C(=O)N[C@@H](CC(=O)c2ccccc2N)C(=O)O[C@@H]1C
MIC (Staphylococcus aureus [3]): 100 mg/L (≈ 55.8 µM)
MIC (Staphylococcus aureus [4]): 100 mg/L (≈ 55.8 µM)
MIC (Enterococcus faecalis [1]): 100 mg/L (≈ 55.8 µM)
MIC (Enterococcus faecium [2]): 100 mg/L (≈ 55.8 µM)

SMILES: CCCCCCCCCC(=O)N[C@@H](Cc1c[nH]c2ccccc12)C(=O)N[C@H](CC(N)=O)C(=O)N[C@@H](CCO)C(=O)N[C@@H]1C(=O)NCC(=O)N[C@@H](CCCNCc2ccc(N3CCN(Cc4ccccc4)CC3)cc2)C(=O)N[C@@H](CC(=O)O)C(=O)N[C@H](C)C(=O)N[C@@H](CC(=O)O)C(=O)NCC(=O)N[C@H](CO)C(=O)N[C@@H]([C@H](C)CC(=O)O)C(=O)N[C@@H](CC(=O)c2ccccc2N)C(=O)O[C@@H]1C
MIC (Enterococcus faecalis [5]): 6.25 mg/L (≈ 3.34 µM)
MIC (Staphylococcus aureus [6]): 0.78 mg/L (≈ 0.417 µM)
MIC (Enterococcus faecium [7]): 12.5 mg/L (≈ 6.68 µM)
MIC (Enterococcus faecalis [8]): 12.5 mg/L (≈ 6.68 µM)
MIC (Staphylococcus aureus [9]): 0.78 mg/L (≈ 0.417 µM)
MIC (Staphylococcus aureus [10]): 0.78 mg/L (≈ 0.417 µM)
MIC (Staphylococcus aureus [11]): 0.78 mg/L (≈ 0.417 µM)
MIC (Enterococcus faecium [12]): 25 mg/L (≈ 13.4 µM)

SMILES: CCCCCCCCCC(=O)N[C@@H](Cc1c[nH]c2ccccc12)C(=O)N[C@H](CC(N)=O)C(=O)N[C@@H](CCO)C(=O)N[C@@H]1C(=O)NCC(=O)N[C@@H](CCCNCc2cc3ccccc3o2)C(=O)N[C@@H](CC(=O)O)C(=O)N[C@H](C)C(=O)N[C@@H](CC(=O)O)C(=O)NCC(=O)N[C@H](CO)C(=O)N[C@@H]([C@H](C)CC(=O)O)C(=O)N[C@@H](CC(=O)c2ccccc2N)C(=O)O[C@@H]1C
MIC (Enterococcus faecalis [5]): 3.13 mg/L (≈ 1.8 µM)
MIC (Staphylococcus aureus [6]): 0.78 mg/L (≈ 0.449 µM)
MIC (Enterococcus faecium [7]): 3.13 mg/L (≈ 1.8 µM)
MIC (Enterococcus faecalis [8]): 6.25 mg/L (≈ 3.6 µM)
MIC (Staphylococcus aureus [9]): 0.78 mg/L (≈ 0.449 µM)
MIC (Staphylococcus aureus [10]): 0.78 mg/L (≈ 0.449 µM)
MIC (Staphylococcus aureus [11]): 1.56 mg/L (≈ 0.898 µM)
MIC (Enterococcus faecium [12]): 12.5 mg/L (≈ 7.2 µM)

SMILES: CCCCCCCCCC(=O)N[C@@H](Cc1c[nH]c2ccccc12)C(=O)N[C@H](CC(N)=O)C(=O)N[C@@H](CC(=O)O)C(=O)N[C@@H]1C(=O)NCC(=O)N[C@@H](CCCNCc2ccc(-c3ccccc3)cc2)C(=O)N[C@@H](CC(=O)O)C(=O)N[C@H](C)C(=O)N[C@@H](CC(=O)O)C(=O)NCC(=O)N[C@H](CO)C(=O)N[C@@H]([C@H](C)CC(=O)O)C(=O)N[C@@H](CC(=O)c2ccccc2N)C(=O)O[C@@H]1C
clearance [13]: 0.157 mL/min/kg
Vd [14]: 0.107 L/kg
half-life [15]: 7.9 h
